# Reference: the METLIN SMRT retention time set (Domingo-Almenara et al. 2019)
# Assay: gradient 5% acetonitrile 3 min, to 50% in 2 min, to 85% in 15 min, held 3 min, 100 µL/min
# Conditions: column: Zorbax Extend-C18 2.1 x 50 mm; eluents: water / acetonitrile, 0.1% formic acid
# Outline: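 Values are retention times taken from adduct peaks that software picked and an analyst inspected. The pure standards were run as mixtures of ~100 molecules on HPLC linked to a quadrupole time-of-flight mass spectrometer, in positive and negative ionization mode. A Zorbax Extend-C18 column (2.1 × 50 mm, 1.8 μm) was used at 100 μL/min with water and acetonitrile, each including 0.1% formic acid.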
row,RP-LC retention time [s],SMILES
1,937,Cc1sc(-c2noc(C3CCC3)n2)cc1S(=O)(=O)N1CCC(C(=O)NCC2CCCO2)CC1 (stereo unspecified)
2,746,COCCCNC(=O)C1(c2ccc(NC(=O)c3cccs3)cc2)CC1
3,829,Cc1ccc(NC(=O)C2CCCN(S(=O)(=O)c3cn(C(C)C)cn3)C2)cc1C (stereo unspecified)
4,931,Cn1c(=O)sc2cc(S(=O)(=O)N3CCC(C(=O)NC4CCCCCCC4)CC3)ccc21
5,911,COc1ccc(Cc2nc(-c3cccc(-c4ccn[nH]4)c3)no2)cc1
6,787,CCn1c(=O)c2ccn(CC(=O)N3CCN(c4ccc(Cl)cc4)CC3)c2n(CC)c1=O
7,1200,O=S(=O)(c1cc(-c2noc(C3CCCC3)n2)cs1)N1CCOCC1
8,898,COc1ccc(C(=O)Nc2nnc(SCc3nnc(-c4ccccc4C)o3)s2)cc1OC
9,740,Cc1cc2[nH]c(C(=O)Nc3ccc(F)c(F)c3)c(CN3CCOCC3)c2s1
10,841,COc1ccc(OC)c(S(=O)(=O)N2CCCC(C(=O)NCc3ccccc3)C2)c1 (stereo unspecified)
11,786,CCc1ccc(CNC(=O)C2CCc3nc(N(CC)CC)ncc3C2)cc1 (stereo unspecified)
12,761,O=C1CN(C(=O)Cc2ccc(Cl)cc2)C2(CCCC2)CN1
13,579,CCOC(=O)C1CCCN(Cc2nc3nc(C)cc(N4CCCC4)n3n2)C1 (stereo unspecified)
14,579,COc1ccc(N2CCN(C(=O)c3ccc(S(=O)(=O)N4CCCC4)cc3)CC2)nn1
15,856,Cc1ccccc1Oc1nccn2c(=O)n(CC(=O)Nc3ccccc3)nc12
16,911,Cn1cc(-c2nc(C(=O)N3CCN(c4ccccc4)CC3)cs2)c2cccnc21
17,1270,CCCc1ccc(S(=O)(=O)N2CCCC2c2nc(-c3ccc(F)cc3)no2)cc1 (stereo unspecified)
18,862,CC(=O)OCC(=O)[C@@]12N=C(C)O[C@@H]1C[C@H]1[C@@H]3CCC4=CC(=O)C=C[C@]4(C)[C@H]3[C@@H](O)C[C@@]12C

row,RP-LC retention time [s],SMILES
1,794,Cc1ccc(Cl)cc1N(C)S(=O)(=O)c1cc2n(c1)CCCN(C)C2=O
2,668,Cc1cc2nc(C(=O)NCC(C)C)c(=O)n(C)c2cc1C
3,1110,O=C(CSc1nc2ccccc2s1)Nc1cccn2cc(-c3ccccc3)nc12
4,674,COc1cccc(-c2nnc(N)o2)c1
5,684,COc1cccc(OC)c1OCC(O)CN1CCN(c2ccccc2F)CC1 (stereo unspecified)
6,1230,Cc1ccc(NS(=O)(=O)c2c(C)nc3sc4cc(C)ccc4n3c2=O)c(C)c1
7,849,CCCNC(=O)c1cnn(-c2cc(-c3nc(CC)no3)ccn2)c1C
8,600,Cc1noc(C)c1S(=O)(=O)N1CC(CN(C)C)C2(CCOCC2)C1 (stereo unspecified)
9,1060,CCOC(=O)c1noc2ncnc(Nc3cc(C)cc(C)c3)c12
10,642,Cc1ncoc1C(=O)N1CCC(C2CCN(S(C)(=O)=O)CC2)C1 (stereo unspecified)
11,780,Cc1nc(-c2ccc3c(c2)n(CC(=O)NC2CCCC2)c(=O)n3C(C)C)no1
12,612,CC(C)n1cnc2cc(CNC(=O)c3c(F)cccc3F)ccc21
13,669,O=C(c1ccc2c(=O)n(-c3ccccc3)c(N3CCCCC3)nc2c1)N1CCN(c2ccccn2)CC1
14,1120,COC(=O)c1ccc(NC(=O)C2CCCN(c3nc4ccccc4nc3OC)C2)cc1 (stereo unspecified)
15,684,CCCN1C(=O)c2ccccc2C(C(=O)N2CCOCC2)C1c1cc(OC)c(OC)c(OC)c1 (stereo unspecified)
16,1080,Cc1ccc(-n2ccc(=O)c(-c3nc(-c4ccc(F)c(Br)c4)no3)n2)cc1
17,693,Cc1cc(N2CCCC2)nc(N2CCN(C(=O)C3CCCCC3)CC2)n1
18,739,O=C(c1nnc(-c2ccc(S(=O)(=O)N3CCCC3)cc2)o1)N1CCOCC1
